Assay results from publication PMC11089505, “Structural Elucidation and Antiviral Activity of Covalent Cathepsin L Inhibitors” (Journal of Medicinal Chemistry, 2024).
“And” between values parts separate entries of the source, which are not always exact repeats. Equal values may be shown once. Read-outs that look alike come from different tables or passages of the source. Peptide text beside a SMILES is read from it. * marks the point of attachment. Cbz = O=C(OCc1ccccc1)*

Columns and labels:
[1] = test system: SARS-CoV-2-GFP in Vero E6 cells; assay: microbe, parasite or virus in culture; format: cell-based; conditions: Severe acute respiratory syndrome coronavirus 2, Vero C1008, 48 h, read-out: EC50 (48 h)
CatL [2] = biological target: T1, CatL (Homo sapiens, UniProt P07711, T223A); assay: NanoDSF, thermal stability of CatL; format: binding
T1 construct: made in house; host or cells: Komagataella pastoris strain GS115
T1 sequence (P07711 114-333 T223A): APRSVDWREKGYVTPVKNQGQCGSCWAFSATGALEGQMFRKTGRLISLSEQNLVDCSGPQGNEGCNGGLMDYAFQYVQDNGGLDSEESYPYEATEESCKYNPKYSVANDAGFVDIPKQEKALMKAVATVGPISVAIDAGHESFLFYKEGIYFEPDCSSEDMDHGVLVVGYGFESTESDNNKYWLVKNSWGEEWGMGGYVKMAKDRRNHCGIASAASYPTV

SARS-CoV-2 Mpro = SARS-CoV-2 Mpro (Severe acute respiratory syndrome coronavirus 2, UniProt P0DTD1); format: binding; conditions: 2:1 compound to protein
CatL [3] = biological target: T1, CatL; assay: CatL inactivation assay comparing epoxides at pH 6 and pH 4; format: biochemical
Experimental: (§1) Experiments were performed in a solution of 50 mM sodium acetate, pH 4.0, 50 mM NaCl, 0.1% PEG 6000, and 5 mM DTT. Distinct assays with epoxide inhibitors at pH 6.0 were performed in 50 mM sodium phosphate buffer, 50 mM NaCl, 5 mM DTT, 0.1% PEG 6000, adjusted to pH 6.0.
(§2) M1000 pro plate reader (Tecan), the fluorescent peptide substrate Z-RR-AMC, and excitation and emission wavelengths of 370 and 460 nm, respectively.
(§3) At first, the inhibitor concentration span was optimized for each inhibitor and the assay buffer. For this initial screening, CatL (5 nM) was mixed with different concentrations of inhibitors (1 nM–50 μM) to determine the range of their inhibition. […] Reaction data were fitted to the […] in GraphPad Prism 9 software: Y = bottom + (top – bottom)/(1 + 10^∧((log IC50 – X) × HillSlope)); X is the log of dose or concentration, Y is the response (fluorescence signal), decreasing as X increases, top and bottom are the plateaus in the same units as Y, log IC50 same log units as X, HillSlope is the slope factor or called the Hill slope.
Figure S7. Inactivation of CatL.
(1 picture or pasted object on this page, not shown here)

cathepsin L = biological target: T2, cathepsin L (Homo sapiens, UniProt P07711, T223A); assay: MALDI-TOF analysis of covalent CatL-inhibitor complex; format: binding; conditions: 37 °C
T2 construct: made in house; host or cells: Komagataella pastoris strain GS115
T2 sequence (P07711 114-333 T223A): as above
Experimental: Experiments were performed in two different buffers, one at pH 4.0 (100 mM sodium acetate, pH 4.0, 50 mM NaCl, 5 mM DTT) and the other at pH 6.0 (100 mM sodium phosphate, pH 6.0, 50 mM NaCl, 5 mM DTT).
Mass spectrometry was performed on an UltrafleXtreme III MALDI-TOF/TOF mass spectrometer (Bruker, Billerica, MA). Samples were prepared on a standard steel target as described by Wenzel et al.[71] The spectra were acquired in a linear mode with a mass range of 20–50 kDa. […] The spectra were externally calibrated with aldolase and BSA standards (Sigma-Aldrich). Acquisition, processing, and calibration were performed using FlexControl 3.0 and FlexAnalysis software (Bruker).
(B) Two-dimensional interaction plot based on chain A according to Dis-
Figure S6. […] Activated matured cathepsin L (3 µM)
Molar ratio 1:10 pH = 4.0
Molar ratio 1:10 pH = 6.0 […]

[4] = Cell viability assay (CellTiter-Blue); conditions: African green monkey
CatL [5] = biological target: T1, CatL; assay: CatL inhibition assay (Ki), substrate Z-RR-AMC; format: biochemical
Experimental: as §1, §2, §3

CatL [6] = conditions: Table S1, SI reference list; cited from earlier work
[7] = in DMSO; compound supply and quality parameters, supplier named in Table S4; cited from earlier work
Vero E6 cells = assay: Cell viability assay (CellTiter-Blue); conditions: Vero E6 cells

With O=C(NCc1ccccc1)[C@H](Cc1ccccc1)NC(=O)[C@H]1O[C@@H]1C(=O)NCCc1ccc(O)cc1 [CAA0225, (2S.3S)-2-N-[(1S)-1-(Benzylcarbamoyl)-2-phenylethyl]-3-N-[2-(4-hydroxyphenyl)ethyl]oxirane-2.3-dicarboxamide] the EC50 [1] was < 0.5 µM, the “2:1, Tm average (CatL)” value (CatL [2]; 2:1 compound to protein) was 70 °C and the “20:1, Tm average (CatL)” value (CatL [2]; 20:1 compound to protein) was 78.5 °C. For the same compound, the “2:1, Tm average (Mpro)” value (SARS-CoV-2 Mpro) was 53.3 °C, the “Inactivation Rate” value (CatL [3]; CAA0225, pH 4, 4.39 nM) was 0.0001763 per second and the “Inactivation Rate” value (CatL [3]; CAA0225, pH 4, 5.85 nM) was 0.0002627 per second. For the same compound, the “Inactivation Rate” value (CatL [3]; CAA0225, pH 4, 6.59 nM) was 0.0001334 per second, the “Inactivation Rate” value (CatL [3]; CAA0225, pH 4, 8.78 nM) was 0.0003675 per second and 0.0002752 per second and the “Inactivation Rate” value (CatL [3]; CAA0225, pH 4, 9.88 nM) was 0.0001166 per second. The “Inactivation Rate” value (CatL [3]; CAA0225, pH 4, 13.17 nM) was 0.0002828 per second and 0.0003022 per second, the “Inactivation Rate” value (CatL [3]; CAA0225, pH 4, 14.82 nM) was 0.0003059 per second and the “Inactivation Rate” value (CatL [3]; CAA0225, pH 4, 19.75 nM) was 0.0002683 per second and 0.0004006 per second. The “Inactivation Rate” value (CatL [3]; CAA0225, pH 4, 22.22 nM) was 0.0004569 per second, the “Inactivation Rate” value (CatL [3]; CAA0225, pH 4, 29.63 nM) was 0.0004182 per second and 0.0006192 per second and the “Inactivation Rate” value (CatL [3]; CAA0225, pH 4, 33.34 nM) was 0.0007535 per second. For the same compound, the “Inactivation Rate” value (CatL [3]; CAA0225, pH 4, 44.44 nM) was 0.0007461 per second and 0.001023 per second, the “Inactivation Rate” value (CatL [3]; CAA0225, pH 4, 50.00 nM) was 0.001182 per second and the “Inactivation Rate” value (CatL [3]; CAA0225, pH 4, 66.67 nM) was 0.001354 per second and 0.001764 per second. For the same compound, the “Inactivation Rate” value (CatL [3]; CAA0225, pH 4, 100.00 nM) was 0.001979 per second, the “Inactivation Rate” value (CatL [3]; CAA0225, pH 6, 4.39 nM) was 0.0002723 per second and the “Inactivation Rate” value (CatL [3]; CAA0225, pH 6, 5.85 nM) was 0.0006424 per second and 0.0005666 per second. For the same compound, the “Inactivation Rate” value (CatL [3]; CAA0225, pH 6, 6.59 nM) was 0.0004593 per second, the “Inactivation Rate” value (CatL [3]; CAA0225, pH 6, 8.78 nM) was 0.001025 per second and 0.001163 per second and the “Inactivation Rate” value (CatL [3]; CAA0225, pH 6, 9.88 nM) was 0.0009595 per second. For the same compound, the “Inactivation Rate” value (CatL [3]; CAA0225, pH 6, 13.17 nM) was 0.001923 per second and 0.002013 per second, the “Inactivation Rate” value (CatL [3]; CAA0225, pH 6, 14.82 nM) was 0.001982 per second and the “Inactivation Rate” value (CatL [3]; CAA0225, pH 6, 19.75 nM) was 0.00308 per second and 0.003226 per second. The “Inactivation Rate” value (CatL [3]; CAA0225, pH 6, 22.22 nM) was 0.003696 per second, the “Inactivation Rate” value (CatL [3]; CAA0225, pH 6, 29.63 nM) was 0.00521 per second and 0.005796 per second and the “Inactivation Rate” value (CatL [3]; CAA0225, pH 6, 33.34 nM) was 0.006322 per second. The “Inactivation Rate” value (CatL [3]; CAA0225, pH 6, 44.44 nM) was 0.007455 per second and 0.01045 per second, the “Inactivation Rate” value (CatL [3]; CAA0225, pH 6, 50.00 nM) was 0.009878 per second and the “Inactivation Rate” value (CatL [3]; CAA0225, pH 6, 66.66 nM) was 0.01058 per second and 0.01915 per second. For the same compound, the “Mass change of cathepsin L main peak with vs without inhibitor” value (cathepsin L; pH 4.0, molar ratio 1:10, 15 min) was 477.7 Da, the “Mass change of cathepsin L main peak with vs without inhibitor” value (cathepsin L; pH 6.0, molar ratio 1:10, 15 min) was 493.8 Da and the viability at 48 h, 1e-05 µM [4] was 103%. The viability at 48 h, 0.0001 µM [4] was 103%, the viability at 48 h, 0.001 µM [4] was 101% and the viability at 48 h, 0.01 µM [4] was 104%. For the same compound, the viability at 48 h, 0.1 µM [4] was 100%, the viability at 48 h, 1 µM [4] was 105% and the viability at 48 h, 10 µM [4] was 105%.
In the case of CCc1ccccc1NC(=O)CSC(=O)NNC(=O)[C@H](Cc1c[nH]c2ccccc12)NC(=O)OC(C)(C)C [TC-I, tert-Butyl N-[(2S)-1-[2-[2-(2-ethylanilino)-2-oxoethyl]sulfanylcarbonylhydrazinyl]-3-(1H-indol-3-yl)-1-oxopropan-2-yl]carbamate], the “ΔTm (for CatL), 2:1 compound to protein mixing ratio” value (CatL [2]; 5 µM CatL, pH 5.0, 2% DMSO, 2:1) is reported as 18,4 ± 0,1 °C and 18.4 °C, the “ΔTm (for CatL), 20:1 compound to protein mixing ratio” value (CatL [2]; 5 µM CatL, pH 5.0, 2% DMSO, 20:1) is reported as 18,8 ± 0,0 °C and 18.8 °C and the “2:1, Tm average (CatL)” value (CatL [2]; 2:1 compound to protein) is reported as 81.5 °C. The “20:1, Tm average (CatL)” value (CatL [2]; 20:1 compound to protein) was 81.9 °C, the “ΔTm [K] for CatL, 2:1 ratio” value (CatL [2]; Table S1, 2:1 ratio) was 18.4 ± 0.1 K and the Ki (CatL [5]; CatL, Z-RR-AMC, pH 4.0, 37 °C, read-out: Ki) was 0.0714 µM. The “Residual activity (Vi/V0)” value (CatL [5]; TC-I 0.665 nM) was 0.9864 and 1.185, the remaining activity at 0.000665 µM (CatL [5]; TC-I 0.665 nM, read-out: Residual activity (Vi/V0)) was 100% and the “Residual activity (Vi/V0)” value (CatL [5]; TC-I 1.109 nM) was 0.9905 and 1.057. For the same compound, the remaining activity at 0.001109 µM (CatL [5]; TC-I 1.109 nM, read-out: Residual activity (Vi/V0)) was 98.8%, the “Residual activity (Vi/V0)” value (CatL [5]; TC-I 1.849 nM) was 0.9855 and 1.105 and the remaining activity at 0.001849 µM (CatL [5]; TC-I 1.849 nM, read-out: Residual activity (Vi/V0)) was 103%. For the same compound, the “Residual activity (Vi/V0)” value (CatL [5]; TC-I 3.082 nM) was 1.069 and 1.158, the remaining activity at 0.003082 µM (CatL [5]; TC-I 3.082 nM, read-out: Residual activity (Vi/V0)) was 111% and the “Residual activity (Vi/V0)” value (CatL [5]; TC-I 5.140 nM) was 1.026 and 1.097. The remaining activity at 0.00514 µM (CatL [5]; TC-I 5.140 nM, read-out: Residual activity (Vi/V0)) was 104%, the “Residual activity (Vi/V0)” value (CatL [5]; TC-I 8.568 nM) was 1.0471 and 1.09 and the remaining activity at 0.008568 µM (CatL [5]; TC-I 8.568 nM, read-out: Residual activity (Vi/V0)) was 105%. The “Residual activity (Vi/V0)” value (CatL [5]; TC-I 14.274 nM) was 0.9298 and 0.9778, the remaining activity at 0.014274 µM (CatL [5]; TC-I 14.274 nM, read-out: Residual activity (Vi/V0)) was 100% and the “Residual activity (Vi/V0)” value (CatL [5]; TC-I 23.798 nM) was 0.9534 and 0.9214. The remaining activity at 0.023798 µM (CatL [5]; TC-I 23.798 nM, read-out: Residual activity (Vi/V0)) was 93.3%, the “Residual activity (Vi/V0)” value (CatL [5]; TC-I 39.658 nM) was 0.9235 and 0.9214 and the remaining activity at 0.039658 µM (CatL [5]; TC-I 39.658 nM, read-out: Residual activity (Vi/V0)) was 74.6%. For the same compound, the “Residual activity (Vi/V0)” value (CatL [5]; TC-I 66.096 nM) was 0.583 and 0.7717 and 0.8256, the “Residual activity (Vi/V0)” value (CatL [5]; TC-I 110.160 nM) was 0.683 and 0.704 and the remaining activity at 0.11016 µM (CatL [5]; TC-I 110.160 nM, read-out: Residual activity (Vi/V0)) was 51.2%. For the same compound, the “Residual activity (Vi/V0)” value (CatL [5]; TC-I 183.600 nM) was 0.3014 and 0.3466 and 0.5578, the IC50 (CatL [6]) was 0.0069 µM and the “Solvent (max. solubility)” value [7] was 50 mg/mL.
For CC(C)C[C@@H](C=O)NC(=O)[C@H](CC(C)C)NC(=O)[C@H](CC(C)C)NC(=O)OCc1ccccc1 [MG-132, Z-Leu-Leu-Leu-aldehyde] (Cbz-Leu-Leu-Leu-aldehyde), the “2:1, Tm average (CatL)” value (CatL [2]) was 79.7 °C, the “20:1, Tm average (CatL)” value (CatL [2]) was 81.7 °C and the “ΔTm [K] for CatL, 2:1 ratio” value (CatL [2]) was 16.6 ± 0.1 K. The “ΔTm (for CatL), 2:1 compound to protein mixing ratio” value (CatL [2]; pH 5) was 16,6 ± 0,1 °C and 16.6 °C, the “ΔTm (for CatL), 20:1 compound to protein mixing ratio” value (CatL [2]; pH 5) was 18,6 ± 0,1 °C and 18.6 °C and the “cell toxicity” value (Vero E6 cells) was “notably high cell toxicity”.
